The text below walks through data of PubChem BioAssay (NCI).

SMILES strings stand for the structures. Values joined by “and” are separate entries in the source; they are usually repeats but may differ in a detail not shown here. Equal values may be shown once.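 1) Cells in 96-well plates. 2) Compound, 48 h, 5 concentrations. 3) Linear interpolation between surrounding doses. 4) Unreached endpoint = highest concentration. GI50 marks 50% less growth. TGI is the concentration that stops growth completely.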 Bounds are passed on as bounds.

Common to all, as to assay: NCI-60 cell line screen, 48 h
Assay [1] concerns A549 NSCLC.
Assay [2] relates to SW-620 colon.
In assay [3] the test system is BT-549 breast.
In assay [4] the test system is OVCAR-4 ovarian.
Assay [5] has as its system ACHN renal.
Assay [6] deals with A498 renal.
In assay [7] the test system is OVCAR-3 ovarian.
Assay [8] deals with OVCAR-5 ovarian.
Assay [9] deals with KM12 colon.
The test system of assay [10] is EKVX NSCLC.

Regarding `COc1ccc(-c2nc(N3CCOCC3)c3sc(CN(C)c4ncc(C(=O)NO)cn4)cc3n2)cn1`, the GI50 in assay [1] was below 0.01 µM; in [2], below 0.01 µM; in [3], 0.014 µM; in assay [4], 0.0147 µM; in assay [5], below 0.01 µM; in assay [6] it was below 0.0155 µM. Also, the GI50 in assay [7] and in assay [8] was below 0.01 µM in each case. For the same compound, the TGI in assay [1] came to 0.0625 µM; in assay [2] it was 1.41 µM; in assay [3], 0.15 µM; in assay [4] it was 1.82 µM; in [5], 0.0345 µM; in [6], 0.0544 µM. Besides, the TGI in assay [7] came out at 0.0282 µM; in assay [8], 0.0419 µM.

`C/C(=C\CCc1ccsc1)CC/C=C(\C)CCCN1CCC(CO)CC1`: the GI50 is 2.35 µM in assay [1]; 2.02 µM in [2]; 1.7 µM in [3]; 2.3 µM in assay [4]; 1.88 µM in assay [9]; 3.02 µM in assay [5]. Besides, the GI50 is 1.24 µM in [6], 2.11 µM in [7] and 2.77 µM in assay [8]. Further, the TGI was determined as 7.56 µM in assay [1]; 4.77 µM in [2]; 3.51 µM in assay [3]; 9.5 µM in [4]; 3.47 µM in assay [9]; 11.5 µM in [5]. Besides, the TGI in [6] amounted to 3.5 µM; in [7], 4.29 µM; in [8] it was 11.6 µM.

As to `Cc1ccc(NC2=C(Cl)C(=O)N(Cc3ccccc3)C2=O)cc1Cl`, the GI50 in assay [1] was 5.74 µM; in [2] it was 5.14 µM; in assay [3], 1.68 µM; in assay [4], 10.7 µM; in [9], 13.7 µM; in assay [5], 11.1 µM. For the same compound, the GI50 in assay [7] was 3.82 µM; in assay [10], 14.1 µM; in [8] it was 15.7 µM. In addition, the TGI in assay [1] is 18.8 µM; in assay [2] it was 16.9 µM; in assay [3], 14.9 µM; in assay [4], 26.6 µM; in assay [9] it was 26.6 µM; in [5], 26.6 µM. Further, the TGI in [7] stood at 15 µM; in assay [10], 28.9 µM; in [8] it was 43.3 µM.

For `COc1ccc(CCN2CCC(Nc3nc4ccccc4n3Cc3ccc(F)cc3)CC2)cc1`, the GI50 in [1] was 1.82 µM; in assay [2], 1.68 µM; in [3], 1.6 µM; in assay [4] it was 1.25 µM; in assay [9], 1.71 µM; in assay [5] it was 1.55 µM. Also, the GI50 in assay [7] is 1.66 µM; in [10], 1.79 µM; in assay [8] it was 1.66 µM. Further, the TGI in [1] was 3.75 µM; in assay [2] it was 5.14 µM; in [3], 2.96 µM; in assay [4], 2.57 µM; in assay [9], 3.13 µM; in [5], 2.93 µM. In addition, the TGI in assay [7] amounted to 3.07 µM; in [10], 5.35 µM; in assay [8] it was 3.7 µM.

With `Cc1ccc(C(=O)C#Cc2c[nH]c(=O)[nH]c2=O)cc1`, the TGI in assay [1] was 39.8 µM; in assay [2], 20.9 µM; in assay [4] it was 47.3 µM; in assay [9], 28.2 µM; in assay [5] it was 29 µM; in [6], 28 µM. Moreover, the TGI amounted to 29.8 µM in [7], 31.4 µM in assay [10] and 33 µM in assay [8].

With `CCC[CH2][Sn]1([CH2]CCC)[O]CC(CN2CCOCC2)[O]1` (stereo not drawn), the GI50 was 18.3 µM in assay [1]; 1.99 µM in [2]; 11.2 µM in assay [4]; 10.4 µM in [9]; 3.02 µM in assay [5]; 5.5 µM in assay [6]. Also, the results for the GI50 in assay [7], in assay [10] and in [8] were 2.13 µM, 2.18 µM and 18.8 µM, respectively. Besides, the TGI in assay [1] was 32.2 µM; in assay [2], 5.44 µM; in assay [4], 23.4 µM; in assay [9] it was 22.5 µM; in [5] it was 9.61 µM; in [6], 17.2 µM. The TGI amounted to 8.23 µM in assay [7], 11.9 µM in [10] and 32.8 µM in assay [8].

Turning to `COC(=O)C1=C(CS(=O)c2ccc([N+](=O)[O-])cc2[N+](=O)[O-])ON(C)C1c1ccccc1` (stereo not drawn), the TGI in [1] is above 100 µM; in assay [2], 48.4 µM; in assay [4], above 100 µM; in assay [9], above 100 µM; in assay [5] it was above 100 µM; in assay [6], above 100 µM. Also, the TGI in assay [7], in assay [10] and in assay [8] was above 100 µM throughout.

Turning to `COc1ccccc1C(N)c1ccccc1` (stereo not drawn), the TGI in assay [1], in assay [2], in assay [4], in assay [9], in [5] and in assay [6] was above 100 µM in each case. In addition, the TGI in [7], in assay [10] and in assay [8] was above 100 µM each time.

For the compound `NCCCNCCSSC/C=C\CSSCCNCCCN`, in [1], the GI50 is > 100 µM and 46.8 µM. The TGI in [1] is above 100 µM; in assay [2], above 100 µM; in assay [4], above 100 µM; in assay [9], 38.7 µM and 36.3 µM; in assay [5], above 100 µM; in assay [6], above 100 µM. The TGI in assay [7], in [10] and in [8] was above 100 µM in each case.

Turning to `CC(=O)c1ccc(NC(=O)C(=O)C(C(=O)c2ccc(Cl)c(Cl)c2)C2OC(=O)c3ccccc32)cc1` (stereo not drawn), the TGI is 58.2 µM in assay [1]; above 100 µM in [2]; above 100 µM in assay [4]; 38.1 µM in [9]; 45.5 µM in assay [5]; 37.6 µM in assay [6]. Moreover, the TGI is 42.6 µM in assay [7], above 100 µM in assay [10] and 71.5 µM in assay [8].

As to `COc1cc(Nc2nc3cc(C(F)(F)F)ccc3nc2-c2ccccc2)cc(OC)c1OC`, the TGI in assay [1] was above 100 µM; in assay [2] it was above 100 µM; in assay [4], 51.3 µM; in assay [9] it was above 100 µM; in [5], above 100 µM; in assay [6], above 100 µM. Moreover, the TGI in assay [7], in [10] and in [8] was above 100 µM each time.
